Laboratory results from PubChem BioAssay AID1259407 (Chemical Carcinogenesis Research Information System (CCRIS), 2018).
Calls of active or inactive are those of the source. The rule behind the calls is not given here.

Test system: CCRIS mutagenicity, Ames/micronucleus/aberration tests
Assay: CCRIS mutagenicity studies
Conditions: Test System: AMES SALMONELLA TYPHIMURIUM
[1] = Strain/Indicator: TA98, Metabolic Activation: NONE, Method: PREINCUBATION
[2] = Strain/Indicator: TA100, Metabolic Activation: NONE, Method: PREINCUBATION
[3] = Strain/Indicator: TA100, Metabolic Activation: NONE, Method: STANDARD PLATE
[4] = Strain/Indicator: TA1535, Metabolic Activation: NONE, Method: STANDARD PLATE
[5] = Strain/Indicator: TA98, Metabolic Activation: NONE, Method: STANDARD PLATE
[6] = Strain/Indicator: TA98(NR), Metabolic Activation: NONE, Method: STANDARD PLATE
[7] = Strain/Indicator: TA98, Metabolic Activation: RAT, LIVER, S-9, AROCLOR 1254, Method: STANDARD PLATE
[8] = Strain/Indicator: TA100, Metabolic Activation: RAT, LIVER, S-9, AROCLOR 1254, Method: STANDARD PLATE

CC(=O)OCCC(C)C
mutagenic call (Strain/Indicator: TA97, Metabolic Activation: HAMSTER, LIVER, S-9, AROCLOR 1254 (10%), Method: PREINCUBATION): inactive; negative | mutagenic call (Strain/Indicator: TA97, Metabolic Activation: HAMSTER, LIVER, S-9, AROCLOR 1254 (30%), Method: PREINCUBATION): inactive; negative | mutagenic call (Strain/Indicator: TA97, Metabolic Activation: NONE, Method: PREINCUBATION): inactive; negative | mutagenic call (Strain/Indicator: TA97, Metabolic Activation: RAT, LIVER, S-9, AROCLOR 1254 (10%), Method: PREINCUBATION): inactive; negative | mutagenic call (Strain/Indicator: TA97, Metabolic Activation: RAT, LIVER, S-9, AROCLOR 1254 (30%), Method: PREINCUBATION): inactive; negative | mutagenic call (Strain/Indicator: TA98, Metabolic Activation: HAMSTER, LIVER, S-9, AROCLOR 1254 (10%), Method: PREINCUBATION): inactive; negative | mutagenic call (Strain/Indicator: TA98, Metabolic Activation: HAMSTER, LIVER, S-9, AROCLOR 1254 (30%), Method: PREINCUBATION): inactive; negative | mutagenic call [1]: inactive; negative | mutagenic call (Strain/Indicator: TA98, Metabolic Activation: RAT, LIVER, S-9, AROCLOR 1254 (10%), Method: PREINCUBATION): inactive; negative | mutagenic call (Strain/Indicator: TA98, Metabolic Activation: RAT, LIVER, S-9, AROCLOR 1254 (30%), Method: PREINCUBATION): inactive; negative | mutagenic call (Strain/Indicator: TA100, Metabolic Activation: HAMSTER, LIVER, S-9, AROCLOR 1254 (10%), Method: PREINCUBATION): inactive; negative | mutagenic call (Strain/Indicator: TA100, Metabolic Activation: HAMSTER, LIVER, S-9, AROCLOR 1254 (30%), Method: PREINCUBATION): inactive; negative | mutagenic call [2]: inactive; negative | mutagenic call (Strain/Indicator: TA100, Metabolic Activation: RAT, LIVER, S-9, AROCLOR 1254 (10 OR 30%), Method: PREINCUBATION): inactive; negative | mutagenic call (Strain/Indicator: TA1535, Metabolic Activation: HAMSTER, LIVER, S-9, AROCLOR 1254 (10%), Method: PREINCUBATION): inactive; negative | mutagenic call (Strain/Indicator: TA1535, Metabolic Activation: HAMSTER, LIVER, S-9, AROCLOR 1254 (30%), Method: PREINCUBATION): inactive; negative | mutagenic call (Strain/Indicator: TA1535, Metabolic Activation: NONE, Method: PREINCUBATION): inactive; negative | mutagenic call (Strain/Indicator: TA1535, Metabolic Activation: RAT, LIVER, S-9, AROCLOR 1254 (10%), Method: PREINCUBATION): inactive; negative | mutagenic call (Strain/Indicator: TA1535, Metabolic Activation: RAT, LIVER, S-9, AROCLOR 1254 (30%), Method: PREINCUBATION): inactive; negative | mutagenic call (Strain/Indicator: TA1537, Metabolic Activation: HAMSTER, LIVER, S-9, AROCLOR 1254 (30%), Method: PREINCUBATION): inactive; negative | mutagenic call (Strain/Indicator: TA1537, Metabolic Activation: NONE, Method: PREINCUBATION): inactive; negative | mutagenic call (Strain/Indicator: TA1537, Metabolic Activation: RAT, LIVER, S-9, AROCLOR 1254 (30%), Method: PREINCUBATION): inactive; negative

CCCCC1CO1 (stereo unspecified)
mutagenic call [3]: inactive; negative | mutagenic call [4]: inactive; negative

O=C1c2c(ccc3ccccc23)-c2cccc3cccc1c23
mutagenic call [5]: inactive; negative | mutagenic call [3]: inactive; negative

Cc1ccc2c(c1)c(=NC(=O)CCCl)sn2C(=O)CCCl
mutagenic call (Strain/Indicator: TA100, Metabolic Activation: S-9, Method: STANDARD PLATE): inactive; negative

O=[N+]([O-])c1cc2ccccc2c2ccccc12
mutagenic call (Strain/Indicator: TA98(1,8-DNP6), Metabolic Activation: NONE, Method: STANDARD PLATE): active; positive | mutagenic call [6]: active; positive | mutagenic call [1]: active; positive | mutagenic call [5]: active; positive | mutagenic call (Strain/Indicator: TA98, Metabolic Activation: RAT, LIVER, S-9, PCB (10%), Method: PREINCUBATION): inactive; negative | mutagenic call [3]: active; positive | mutagenic call (Strain/Indicator: TA7001, Metabolic Activation: NONE, Method: PREINCUBATION): active; positive | mutagenic call (Strain/Indicator: TA7002, Metabolic Activation: NONE, Method: PREINCUBATION): active; positive | mutagenic call (Strain/Indicator: TA7003, Metabolic Activation: NONE, Method: PREINCUBATION): inactive; negative | mutagenic call (Strain/Indicator: TA7004, Metabolic Activation: NONE, Method: PREINCUBATION): active; positive | mutagenic call (Strain/Indicator: TA7005, Metabolic Activation: NONE, Method: PREINCUBATION): active; positive | mutagenic call (Strain/Indicator: TA7006, Metabolic Activation: NONE, Method: PREINCUBATION): active; positive | mutagenic call (Strain/Indicator: YG1021, Metabolic Activation: NONE, Method: STANDARD PLATE): active; positive | mutagenic call (Strain/Indicator: YG1024, Metabolic Activation: NONE, Method: STANDARD PLATE): active; positive | mutagenic call (Strain/Indicator: YG1026, Metabolic Activation: NONE, Method: STANDARD PLATE): active; positive | mutagenic call (Strain/Indicator: YG1029, Metabolic Activation: NONE, Method: STANDARD PLATE): active; positive

Cc1cc2ccccc2c2ccc3c(c12)[C@@H]1O[C@@H]1[C@H](O)[C@H]3O
mutagenic call [2]: active; positive | mutagenic call [3]: active; positive

CC(C)(C)OC(=O)O/N=C(/C#N)c1ccccc1
mutagenic call [5]: inactive; negative | mutagenic call [7]: inactive; negative | mutagenic call [3]: inactive; negative | mutagenic call [8]: inactive; negative | mutagenic call [4]: inactive; negative | mutagenic call (Strain/Indicator: TA1535, Metabolic Activation: RAT, LIVER, S-9, AROCLOR 1254, Method: STANDARD PLATE): inactive; negative | mutagenic call (Strain/Indicator: TA1537, Metabolic Activation: NONE, Method: STANDARD PLATE): inactive; negative | mutagenic call (Strain/Indicator: TA1537, Metabolic Activation: RAT, LIVER, S-9, AROCLOR 1254, Method: STANDARD PLATE): inactive; negative

CCC[CH2][Sn]([CH2]CCC)([CH2]CCC)[CH2]CCC
mutagenic call (Strain/Indicator: TA98, Metabolic Activation: NONE, Method: SUSPENSION/PLATE): inactive; negative | mutagenic call (Strain/Indicator: TA100, Metabolic Activation: NONE, Method: SUSPENSION/PLATE): inactive; negative

O=[N+]([O-])c1cc2ccc3cccc4ccc(c1O)c2c34
mutagenic call [6]: active; positive | mutagenic call [5]: active; positive | mutagenic call [7]: active; positive | mutagenic call [3]: active; positive | mutagenic call [8]: active; positive

CNc1ccc(C(=C2C=CC(=[N+](C)C)C=C2)c2ccc(N(C)C)cc2)cc1
mutagenic call (Strain/Indicator: TA100, Method: PREINCUBATION): active; positive
